# B1: activin A: TGFβ family member produced in skin (protein, UniProt P08476 311-426, looked up)
# Inhibin beta A chain: GLECDGKVNICCKKQFFVSFKDIGWNDWIIAPSGYHANYCEGECPSHIAGTSGSSLSFHSTVINHYRMRGHSPFANLKSCCVPTKLRPMSMLYYDDGQNIIKKDIQNMIVEECGCS
# B2: Smad7: FLAG-tagged Smad7 overexpressed from an expression construct; competes with Smad2/3 for binding to activated ALK (protein, UniProt O15105 1-426, looked up)
# Mothers against …: MFRTKRSALVRRLWRSRAPGGEDEEEGAGGGGGGGELRGEGATDSRAHGAGGGGPGRAGCCLGKAVRGAKGHHHPHPPAAGAGAAGGAEADLKALTHSVLKKLKERQLELLLQAVESRGGTRTACLLLPGRLDCRLGPGAPAGAQPAQPPSSYSLPLLLCKVFRWPDLRHSSEVKRLCCCESYGKINPELVCCNPHHLSRLCELESPPPPYSRYPMDFLKPTADCPDAVPSSAETGGTNYLAPGGLSDSQLLLEPGDRSHWCVVAYWEEKTRVGRLYCVQEPSLDIFYDLPQGNGFCLGQLNSDNKSQLVQKVRSKIGCGIQLTREVDGVWVYNRSSYPIFIKSATLDNPDSRTLLVHKVFPGFSIKAFDYEKAYSLQRPNDHEFMQQPWTGFTVQISFVKGWGQCYTRQFISSCPCWLEVIFNSR
# modifications: FLAG tag
# Tests used:
# Smad2/3 signaling [1] = test: Count of BDT-labeled CST axons caudal to spinal cord lesion; type: in vivo, Sprague Dawley rats; conditions: rats, seven weeks and 3 d after lesioning; 1-19 mm caudal to lesion; vs lesioned control rats
# From the text: Rats are randomly assigned to control or experimental groups. Sham control rats undergo surgical procedure without lesioning, and with or without placement of an intrathecal catheter. Lesioned control rats receive no treatment, tail injection vehicle only treatment, intrathecal catheter only treatment, intrathecal catheter with vehicle only treatment, or intrathecal catheter and mismatch siRNA treatment. After anesthesia with isoflurane, the rats are placed on an operating board in such a way as to bend the cervical spinal cord for maximum exposure. A laminectomy is performed exposing the dorsum of the spinal cord between C2 and C4. The dorsal columns are identified bilaterally, and, in all rats except for those in the sham group, a suture needle is passed through the spinal cord, isolating the dorsal funiculus. The suture thread is gently lifted, and a pair of iridectomy scissors is used to bilaterally transect the dorsal funiculus, thereby transecting the dorsal corticospinal tract (CST). […]
# Seven weeks after injury, rats are prepared for injection of biotin dextran tetramethylrhodamine (BDT; Molecular Probes). […] After anesthesia with isoflurane (5%), rats are placed in a stereotaxic instrument, and a total of six stereotaxically determined holes (0.9 mm diameter) are drilled in the skull over the primary motor cortices associated with the forelimbs. […]
# [2] = test system: adult DRG neurons (L4 and L5); test: Axonal growth ability of injected adult DRG neurons cultured in vitro for 12 hrs; type: in vivo, rat; conditions: injected into adult DRG; 3 or 7 days post-injection, cultured 12 hrs; vs saline
# Protocol: (§1) Average axon length of the longest neurite from every individual neuron was measured and quantified as described before (Koprivica et al., 2005; Wang et al., 2002a; Wang et al., 2002b). Branching frequency was measured by dividing the number of branches from the longest neurite by the length of the neurite, as previously described (Smith and Skene, 1997). All measurements were made from at least 150 neurons per condition, from duplicate wells and from three independent experiments.
# We next examined whether inhibiting this signaling pathway could enhance the intrinsic growth state of adult DRG neurons by pharmacological approaches. We injected SB505124 or the same volume of saline into the adult DRG (L4 and L5). 3 or 7 days post-injection, the axonal growth ability of injected DRG neurons were assayed by culturing DRG neurons in vitro for 12 hrs.
# phospho-Smad2 = test: Phospho-Smad2 in adult DRG after intraganglionic injection; type: in vivo, rat; conditions: 2 μl of 5-10 mM injected into adult DRG (L4 and L5); pilot experiments
# Smad2/3 signaling [3] = test: Directed forepaw reaching (DFR) task after dorsal corticospinal tract transection; type: in vivo, Sprague Dawley rats; conditions: rats, sixth week after surgery; SB-505124 30 mg/kg tail vein or siRNA 10 μl intrathecal, days 1-7; vs lesion and vehicle groups
# From the text: Adult Sprague Dawley rats (300-400 gm) are trained and tested in a directed forepaw reaching (DFR) apparatus which measures grasping ability. The apparatus, which is described in detail by Nash et al., supra, is a box that consists of two compartments: a main compartment for housing the rats and a minor compartment for the food, separated by a Plexiglas divider. The minor compartment is subdivided into slots of equal size, each holding a pellet of food. Between the slots and the Plexiglas there is a gap. The apparatus is configured such that in order to retrieve a food pellet from a slot, a rat must extend a forelimb through a hole in the Plexiglas divider, and grasp the pellet and lift it over the gap and out of the slot. If the rat merely rakes the food in the slot towards the hole in the Plexiglas, the food will drop from the slot into the gap and fall to the floor of the minor compartment. The floor of the minor compartment can be configured to allow a rat to retrieve food that drops or it can be lowered to prevent the rat from reaching dropped food. Prior to inducing spinal injury, the rats are food restricted, receiving ˜3 gm food/100 gm body weight per day, before and throughout training and testing. Weight is monitored to ensure that rats are reduced to no less than 80% of their original body weight at any time. […]
# adult DRG neurons = test: Effect of activin A on axonal elongation of adult DRG neurons (prior experiments); type: cell-based
# embryonic DRG neurons = test: Effect of activin A on axonal growth ability of embryonic DRG neurons (prior experiments); type: cell-based
# [4] = test system: cerebellar granule neurons (CGNs) from postnatal rats; test: Axonal growth of cerebellar granule neurons overexpressing Smad7; type: cell-based, rat; conditions: Smad7 expression, effect became stronger with time
# Protocol: (§2) For overexpression of Smad7 in DRGs, adult rat DRG neurons were co-transfected by electroporation with 2 μg pEGFP (Invitrogen) and 5 μg of an expression construct for FLAG-tagged Smad7 (Nakao et al., 1997) or control plasmid using the Rat Neuron Nucleofector Kit (Amaxa) following manufacturer's protocol. After brief purification, the neurons were plated at a density of 200-500 cells/mm2. For overexpression of Smad7 in cerebellar granule neurons (CGN), CGNs from P6 Sprague-Dawley rat pups were dissected, plated onto poly-D-lysine (20 μg/ml), and cultured in Basal Medium Eagle (Gibco) supplemented with 10% calf serum, 25 mM KCl, 2 mM L-glutamine, penicillin and streptomycin, at a density of 2.5×10^3 cells/mm2. CGNs were co-transfected with pEGFP and Smad7 or control plasmid at a 1 to 3 ratio using a modified calcium phosphate transfection method as described before (Konishi et al., 2004). […]
# as §1, with “All measurements were made from at least 150 neurons per condition, from duplicate wells and from three independent experiments.” left out
# [5] = test system: dissociated adult rat DRG neurons; test: Axonal growth of adult rat DRG neurons overexpressing Smad7; type: cell-based; conditions: Smad7 overexpression vs control GFP
# Protocol: as §2
# as §1, with “All measurements were made from at least 150 neurons per condition, from duplicate wells and from three independent experiments.” left out
molecule,measurement,setting,value
"Cc1cccc(-c2[nH]c(C(C)(C)C)nc2-c2ccc3c(c2)OCO3)n1.Cl [SB-505124, 2-(5-benzo[1,3]dioxol-5-yl-2-tert-butyl-3H-imidazol-4-yl)-6-methylpyridinehydrochloride]",number of BDT-labeled axons caudal to the lesion,Smad2/3 signaling [1],Significantly more labeled axons at each distance
same,axonal elongation of DRG neurons,[2],significantly increased axonal elongation
same,branching frequency of DRG neurons,[2],reduced branching frequency
same,phospho-Smad2 in the injected DRGs,phospho-Smad2,significant reduction of phospho-Smad2
same,DFR task performance (functional recovery after spinal injury),Smad2/3 signaling [3],Significantly better performance
B1,axonal elongation ability,adult DRG neurons,reduces axonal elongation ability
same,axonal growth ability,embryonic DRG neurons,triggers a decline in axonal growth ability
B2,axonal growth rate,[4],dramatically increase axonal growth rate
same,rate of axonal growth,[5],significantly enhanced the rate of axonal growth

# Reference: US20090181420A1, “Inhibiting Smad signaling promotes neuron regeneration” (Children's Medical Center Corporation, priority 2006, published 2009)
